Columns and labels:
[1] = molecular target: Human immunodeficiency virus type 1 reverse transcriptase (Human immunodeficiency virus 1, UniProt Q72547); test: Inhibition of HIV-1 reverse transcriptase.
[2] = tested on: CCRF-CEM; test: Compound was evaluated for anti-HIV activity against HIV-2 infected CEM/0 cell lines.; format: functional, cell-based; settings: Homo sapiens
[3] = tested on: CEM-TK(-); test: Compound was evaluated for anti-HIV activity against HIV-2 infected CEM/TK- cell lines.; settings: Homo sapiens
[4] = tested on: CCRF-CEM; test: Concentration of compound required to reduce viability of CEM/0 cells by 50%.; format: functional; settings: Homo sapiens
[5] = tested on: CCRF-CEM; test: Compound was evaluated for anti-HIV activity against HIV-1 infected CEM/0 cell lines.; format: functional, cell-based; settings: Homo sapiens
[6] = tested on: C8166; test: Concentration of compound required to reduce viability of C8166 cells by 50%.; format: functional; settings: Homo sapiens
[7] = tested on: C8166; test: Compound was evaluated for anti-HIV activity against HIV-1 infected C8166 cell lines; format: functional, cell-based; settings: Homo sapiens
[8] = species: Homo sapiens; test: Compound was evaluated for anti-HIV activity against HIV-2 infected CEM/TK- cell lines.; format: functional, organism-based

| IC50 [1] | EC50 [2] | EC50 [3] | EC50 [5] | EC50 [7] | EC50 [8] | SMILES | CC50 [4] | CC50 [6] |
| --- | --- | --- | --- | --- | --- | --- | --- | --- |
| > 100 µM | 550 nM | 87 µM | 1600 nM | 1.6 µM | – | Cc1cn(C2C=CC(COC(=O)CC(O)(CC(=O)OCc3ccccc3)C(=O)OCc3ccccc3)O2)c(=O)[nH]c1=O (centres undefined) | 64 µM | 500 µM |
| > 100 µM | 4000 nM | – | 4000 nM | 3.2 µM | > 250 µM | Cc1cn(C2C=CC(COC(=O)CC(O)(CC(=O)O)C(=O)O)O2)c(=O)[nH]c1=O (centres undefined) | 209 µM | 500 µM |
| > 100 µM | – | – | – | > 2500 µM | – | Cc1cn(C2C=CC(CNC(=O)CC(O)(CC(=O)O)C(=O)O)O2)c(=O)[nH]c1=O (centres undefined) | – | > 2500 µM |
| > 100 µM | > 250000 nM | – | > 250000 nM | 400 µM | – | C=CCOC(=O)CC(O)(CC(=O)NCC1C=CC(n2cc(C)c(=O)[nH]c2=O)O1)C(=O)OCC=C (centres undefined) | > 250 µM | > 1000 µM |
| > 100 µM | > 250000 nM | – | > 250000 nM | 1000 µM | – | COC(=O)CC(O)(CC(=O)NCC1C=CC(n2cc(C)c(=O)[nH]c2=O)O1)C(=O)OC (centres undefined) | > 250 µM | > 1000 µM |
| > 100 µM | 2500 nM | 110 µM | 950 nM | 0.8 µM | – | COC(=O)CC1(CC(=O)OCC2C=CC(n3cc(C)c(=O)[nH]c3=O)O2)OCOC1=O (centres undefined) | 100 µM | 400 µM |
| > 100 µM | 550 nM | 72 µM | 700 nM | 1 µM | – | C=CCOC(=O)CC(O)(CC(=O)OCC1C=CC(n2cc(C)c(=O)[nH]c2=O)O1)C(=O)OCC=C (centres undefined) | 69 µM | 500 µM |
| > 100 µM | 4500 nM | > 250 µM | 3470 nM | 4 µM | – | Cc1cn(C2C=CC(COC(=O)CC3(CC(=O)O)OCOC3=O)O2)c(=O)[nH]c1=O (centres undefined) | > 250 µM | 1000 µM |
| > 100 µM | 1600 nM | 78 µM | 2000 nM | 0.8 µM | – | C=CCOC(=O)CC1(CC(=O)OCC2C=CC(n3cc(C)c(=O)[nH]c3=O)O2)OCOC1=O (centres undefined) | 179 µM | 500 µM |
| – | 3000 nM | > 250 µM | 1350 nM | 8 µM | – | Cc1cn(C2C=CC(COC(=O)CC3(CC(=O)OCc4ccccc4)OCOC3=O)O2)c(=O)[nH]c1=O (centres undefined) | 92.8 µM | 400 µM |

| SMILES | IC50 [1] | EC50 [2] | EC50 [3] | EC50 [5] | EC50 [7] | EC50 [8] | CC50 [4] | CC50 [6] |
| --- | --- | --- | --- | --- | --- | --- | --- | --- |
| Cc1cn([C@H]2C[C@H](N=[N+]=[N-])[C@@H](CO)O2)c(=O)[nH]c1=O [ZIDOVUDINE] | > 100 µM | 6 nM | > 250 µM | – | 0.016 µM | – | > 250 µM | > 1000 µM |
